# In PMC7287781 (Molecules, 2020):
# Legend:
# Flt-1 = molecular target: T1, Flt-1 (Homo sapiens, UniProt P17948); assay: ELISA tyrosine kinase activity assay, single concentration; type: biochemical; details: read-out: Inhibition Rate(%) / Flt-1
# T1 construct: gene FLT1; purified tyrosine kinase protein
# PDGFR-α = molecular target: T2, PDGFR-α (Homo sapiens, UniProt P16234); assay: as above; type: biochemical; details: read-out: Inhibition Rate(%) / PDGFR-α
# T2 construct: gene PDGFRA; purified tyrosine kinase protein
# T2 sequence (P16234 24-1089): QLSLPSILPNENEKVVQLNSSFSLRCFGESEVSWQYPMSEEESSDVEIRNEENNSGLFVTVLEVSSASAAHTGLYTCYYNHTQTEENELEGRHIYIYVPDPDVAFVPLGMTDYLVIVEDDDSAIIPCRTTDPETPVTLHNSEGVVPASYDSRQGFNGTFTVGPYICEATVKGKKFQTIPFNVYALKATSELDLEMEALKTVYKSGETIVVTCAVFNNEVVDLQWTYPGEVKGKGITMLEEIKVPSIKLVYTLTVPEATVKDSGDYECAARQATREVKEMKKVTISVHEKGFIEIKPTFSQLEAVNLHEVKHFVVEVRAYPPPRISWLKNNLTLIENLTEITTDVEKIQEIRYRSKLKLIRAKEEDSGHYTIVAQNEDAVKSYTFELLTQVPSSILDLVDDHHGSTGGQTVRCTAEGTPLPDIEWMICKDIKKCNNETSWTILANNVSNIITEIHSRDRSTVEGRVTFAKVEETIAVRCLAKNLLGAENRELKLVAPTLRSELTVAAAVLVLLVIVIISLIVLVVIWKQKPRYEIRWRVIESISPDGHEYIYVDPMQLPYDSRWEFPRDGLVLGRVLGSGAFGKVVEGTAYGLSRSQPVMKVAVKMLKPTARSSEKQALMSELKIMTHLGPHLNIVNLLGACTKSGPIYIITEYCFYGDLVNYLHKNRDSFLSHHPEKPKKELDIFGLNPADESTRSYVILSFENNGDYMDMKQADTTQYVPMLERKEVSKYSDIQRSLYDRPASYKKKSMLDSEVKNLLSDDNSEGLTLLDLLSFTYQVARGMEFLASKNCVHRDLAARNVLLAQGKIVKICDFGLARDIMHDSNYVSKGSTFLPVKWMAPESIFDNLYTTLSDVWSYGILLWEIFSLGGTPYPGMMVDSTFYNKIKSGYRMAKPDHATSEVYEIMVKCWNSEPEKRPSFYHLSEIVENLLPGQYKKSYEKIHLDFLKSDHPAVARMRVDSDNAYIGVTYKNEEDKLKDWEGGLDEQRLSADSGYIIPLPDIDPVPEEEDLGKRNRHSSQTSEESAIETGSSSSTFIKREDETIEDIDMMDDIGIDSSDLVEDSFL
# PDGFR-β = molecular target: T3, PDGFR-β (Homo sapiens, UniProt P09619); assay: as above; type: biochemical; details: read-out: Inhibition Rate(%) / PDGFR-β
# T3 construct: gene PDGFRB; purified tyrosine kinase protein
# T3 sequence (P09619 33-1106): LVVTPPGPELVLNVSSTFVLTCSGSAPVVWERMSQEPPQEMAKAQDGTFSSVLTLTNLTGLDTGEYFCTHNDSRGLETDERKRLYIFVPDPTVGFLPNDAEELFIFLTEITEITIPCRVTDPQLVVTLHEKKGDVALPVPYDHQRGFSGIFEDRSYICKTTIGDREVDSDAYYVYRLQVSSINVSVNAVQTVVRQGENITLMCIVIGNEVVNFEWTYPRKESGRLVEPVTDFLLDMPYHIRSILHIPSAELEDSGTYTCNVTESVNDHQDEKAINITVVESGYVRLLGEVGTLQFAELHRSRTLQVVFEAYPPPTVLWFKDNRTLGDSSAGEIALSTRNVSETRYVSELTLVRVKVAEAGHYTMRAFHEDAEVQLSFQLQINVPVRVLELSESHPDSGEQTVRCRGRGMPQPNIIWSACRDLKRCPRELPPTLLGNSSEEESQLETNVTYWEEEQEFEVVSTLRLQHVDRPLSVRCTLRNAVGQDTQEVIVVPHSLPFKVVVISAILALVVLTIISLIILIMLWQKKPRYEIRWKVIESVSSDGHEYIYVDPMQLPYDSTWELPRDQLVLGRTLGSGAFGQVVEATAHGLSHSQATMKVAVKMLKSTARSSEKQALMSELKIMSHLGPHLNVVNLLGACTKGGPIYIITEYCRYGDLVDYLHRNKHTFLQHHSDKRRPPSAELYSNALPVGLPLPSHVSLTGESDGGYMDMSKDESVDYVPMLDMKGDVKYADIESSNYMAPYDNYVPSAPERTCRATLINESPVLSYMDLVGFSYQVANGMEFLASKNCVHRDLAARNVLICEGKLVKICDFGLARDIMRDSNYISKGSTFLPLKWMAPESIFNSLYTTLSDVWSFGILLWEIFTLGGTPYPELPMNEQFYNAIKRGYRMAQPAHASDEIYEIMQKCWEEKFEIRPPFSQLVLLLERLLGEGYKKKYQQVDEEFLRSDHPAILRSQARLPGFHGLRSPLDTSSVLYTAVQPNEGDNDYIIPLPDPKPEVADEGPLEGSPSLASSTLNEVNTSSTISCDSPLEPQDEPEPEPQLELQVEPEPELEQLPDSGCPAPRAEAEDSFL
# STAT3 = molecular target: T4, STAT3 (Homo sapiens, UniProt P40763); assay: fluorescence polarization competition with 5-carboxyfluorescein-GpYLPQTV-NH2; […], […], […] inhibition at […]; type: binding
# T4 construct: STAT3 protein (ab43618, Abcam)
# T4 sequence (P40763 2-770): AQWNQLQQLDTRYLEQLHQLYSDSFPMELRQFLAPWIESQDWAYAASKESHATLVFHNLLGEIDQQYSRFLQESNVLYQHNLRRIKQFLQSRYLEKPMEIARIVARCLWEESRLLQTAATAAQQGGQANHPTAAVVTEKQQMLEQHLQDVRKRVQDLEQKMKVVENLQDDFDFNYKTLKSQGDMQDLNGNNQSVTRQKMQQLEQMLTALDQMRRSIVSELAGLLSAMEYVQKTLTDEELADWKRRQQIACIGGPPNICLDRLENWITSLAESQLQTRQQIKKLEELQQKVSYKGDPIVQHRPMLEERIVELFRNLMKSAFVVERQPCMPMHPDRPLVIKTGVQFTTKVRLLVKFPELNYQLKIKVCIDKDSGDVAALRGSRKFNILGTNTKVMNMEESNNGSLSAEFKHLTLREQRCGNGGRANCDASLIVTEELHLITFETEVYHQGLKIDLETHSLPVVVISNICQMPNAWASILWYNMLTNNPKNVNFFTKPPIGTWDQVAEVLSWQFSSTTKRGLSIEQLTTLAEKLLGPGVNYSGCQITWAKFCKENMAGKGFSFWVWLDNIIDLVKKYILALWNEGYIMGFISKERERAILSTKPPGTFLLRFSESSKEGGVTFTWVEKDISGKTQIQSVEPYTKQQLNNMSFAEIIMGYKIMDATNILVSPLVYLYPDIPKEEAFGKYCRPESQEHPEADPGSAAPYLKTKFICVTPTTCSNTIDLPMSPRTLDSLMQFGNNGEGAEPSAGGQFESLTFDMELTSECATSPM
# T1 sequence (P17948 27-1338): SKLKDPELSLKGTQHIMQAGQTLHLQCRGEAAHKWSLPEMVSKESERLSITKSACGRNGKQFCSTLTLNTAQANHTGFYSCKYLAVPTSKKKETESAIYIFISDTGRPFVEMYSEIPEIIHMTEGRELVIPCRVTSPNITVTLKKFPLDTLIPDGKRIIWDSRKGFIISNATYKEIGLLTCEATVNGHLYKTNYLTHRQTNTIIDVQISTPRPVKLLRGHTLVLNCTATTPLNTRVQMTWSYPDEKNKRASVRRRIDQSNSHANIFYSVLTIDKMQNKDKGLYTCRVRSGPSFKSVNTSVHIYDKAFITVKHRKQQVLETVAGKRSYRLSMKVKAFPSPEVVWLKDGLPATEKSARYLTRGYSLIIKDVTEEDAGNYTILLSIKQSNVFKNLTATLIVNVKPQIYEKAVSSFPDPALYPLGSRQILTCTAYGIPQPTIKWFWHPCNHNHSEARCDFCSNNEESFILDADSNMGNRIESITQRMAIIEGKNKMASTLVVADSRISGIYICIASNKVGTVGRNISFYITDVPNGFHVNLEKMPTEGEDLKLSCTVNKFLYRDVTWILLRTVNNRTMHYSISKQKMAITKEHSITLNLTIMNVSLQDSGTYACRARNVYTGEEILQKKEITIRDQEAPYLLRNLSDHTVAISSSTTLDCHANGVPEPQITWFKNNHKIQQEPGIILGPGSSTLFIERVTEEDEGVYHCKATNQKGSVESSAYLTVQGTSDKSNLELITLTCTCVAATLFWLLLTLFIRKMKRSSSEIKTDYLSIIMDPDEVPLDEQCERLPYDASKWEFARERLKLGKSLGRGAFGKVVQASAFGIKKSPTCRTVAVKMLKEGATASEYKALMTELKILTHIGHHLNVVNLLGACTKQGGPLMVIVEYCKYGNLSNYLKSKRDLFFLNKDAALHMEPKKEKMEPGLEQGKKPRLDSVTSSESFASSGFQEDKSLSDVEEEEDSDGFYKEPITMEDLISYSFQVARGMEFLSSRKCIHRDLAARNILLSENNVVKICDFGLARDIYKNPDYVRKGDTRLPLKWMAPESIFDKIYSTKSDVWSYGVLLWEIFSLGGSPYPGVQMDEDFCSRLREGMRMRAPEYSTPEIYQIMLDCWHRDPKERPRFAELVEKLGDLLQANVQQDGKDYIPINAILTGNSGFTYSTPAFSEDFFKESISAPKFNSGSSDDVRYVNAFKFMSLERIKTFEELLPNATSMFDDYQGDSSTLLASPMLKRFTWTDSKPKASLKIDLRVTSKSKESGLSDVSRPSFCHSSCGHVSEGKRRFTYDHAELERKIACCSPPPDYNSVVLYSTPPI
SMILES,inhibition at 1 µM (Flt-1) [%],inhibition at 1 µM (PDGFR-α) [%],inhibition at 1 µM (PDGFR-β) [%],% inhibition at 2 μM (STAT3)
CCN(CC)CCNC(=O)c1c(C)[nH]c(/C=C2\C(=O)Nc3ccc(F)cc32)c1C [Su11248],66.6,68.4,80.2,–
"C/C=C\C(=O)O[C@@H]1C[C@H]2O[C@@H]3C=C(C)C(=O)C[C@]3(C)[C@]1(C)[C@]21CO1 [TCN, trichothecin]",–,–,–,53.9
